By IC50 is commonly meant the concentration at which inhibition is half-maximal.

Experiment [1] deals with MCF-7 (human breast adenocarcinoma). In words: MTS reduction assay, cytotoxicity on MCF-7 cells. The experiment is classed as cell-based. Conditions: average of three repeats. The protocol: (§1) MCF-7 (human breast adenocarcinoma), NCI-H460 (non-small-cell lung cancer) and HepG2 (liver hepatocellular cells) were incubated in a modified Dulbecco's Eagle's medium with 10% FBS and nonessential amino acid ([…], Inc) in an incubator with 37° C., 5% CO2/Air. Human cancer cell lines were planted in 96-well plates, and each well which contained the 100 μl medium were planted one of MCF-7 and NCI-H460 with a cell amount of 6500, 2500 and 7500. After overnight incubation, each cell line was administered at least 8 testing compounds with different concentrations individually, and subsequently the cell lines were incubated in the incubator for 72 hours. According to a method of MTS reduction assay, 5-(3-carboxymethoxyphenyl)-2-(4,5-dimethylthiazoyl)-3-(4-sulfophenyl)tetrazolium salt (MTS) was applied on estimating alive cell numbers, and 0.1% DMSO (Promega, Madison, Wis., USA) was a control group because DMSO controlled a result of percentage, the result could be a dose-response curve of IC50 value. […] The IC50 value was an average of three times repeats. The 10000/well HepG2 cells were planted on a 96-well plate and were gone through the same experiences.
For orientation: Formazan colour is commonly taken as a measure of viable cells.

The subject of experiment [2] is NCI-H460 (non-small-cell lung cancer). In words: MTS reduction assay, cytotoxicity on NCI-H460 cells. The following applies: NCI-H460, 72 hours, average of three repeats. The experiment is classed as cell-based, human. Here is the method: as §1
The test system of experiment [3] is HepG2 (liver hepatocellular cells). In words: MTS reduction assay, cytotoxicity on HepG2 cells. It counts as cell-based, human. Conditions: HepG2, 72 hours, average of three repeats. The protocol: as §1

As for `COC1C(OC2CCC3(C=O)C4CCC5(C)C(C6=CC(=O)OC6)CCC5(O)C4CCC3(O)C2)OC(C)C(O)C1O` (stereo not drawn) [epi-reevesioside F (7), epi-reevesioside F], the half-inhibitory concentration (IC50) in experiment [1] (MCF-7, 72 hours) is 34.1 ± 5.5 nM; in experiment [2], 10.4 ± 0.5 nM; in experiment [3], 996 ± 92.6 nM.

As for `C[C@@H]1C[C@H]2OCO[C@H]2[C@H](O[C@H]2CC[C@]3(C=O)[C@H]4CC[C@]5(C)[C@@H](C6=CC(=O)OC6)CC[C@]5(O)[C@@H]4CC[C@]3(O)C2)O1` [reevesioside A (1), reevesioside A], the IC50 is 63.2 ± 2.1 nM in experiment [1] (MCF-7, 72 hours); 19.3 ± 0.5 nM in experiment [2]; 368 ± 29.9 nM in experiment [3].

For `COc1cc2c3c(c4cc(OC)c(OC)cc4c2cc1OC)CN1CCC[C@@H]1C3` [tylophorine, reference compound], the IC50 was 236 ± 11 nM in experiment [1] (Homo sapiens, MCF7, MCF-7, 72 hours); 233 ± 24 nM in experiment [2] (Homo sapiens); 215 ± 14 nM in experiment [3] (Homo sapiens).

For the compound reevesioside B [reevesioside B (2)], the concentration for half-maximal inhibition (IC50) in experiment [1] (MCF-7, 72 hours) was 3520 ± 72 nM; in experiment [2] it was 431 ± 45.1 nM; in experiment [3], 4760 ± 202 nM.

On to reevesioside C [reevesioside C (3)], for which the concentration for half-maximal inhibition (IC50) was found to be 2040 ± 173 nM in experiment [1] (MCF-7, 72 hours); 208 ± 15.6 nM in experiment [2]; 3740 ± 261 nM in experiment [3].

In the case of reevesioside D [reevesioside D (4)], the IC50 in experiment [1] (MCF-7, 72 hours) was 36400 ± 2580 nM; in experiment [2], 3900 ± 316 nM; in experiment [3], more than 500000 nM.

Regarding reevesioside E [reevesioside E (5)], the half-maximal inhibitory concentration (IC50) in experiment [1] (MCF-7, 72 hours) is 11800 ± 2240 nM; in experiment [2], 1770 ± 35.4 nM; in experiment [3], 40500 ± 6430 nM.

On to reevesioside F [reevesioside F (6)], for which the concentration for half-maximal inhibition (IC50) in experiment [1] (MCF-7, 72 hours) was 72 ± 8.1 nM; in experiment [2] it was 20.3 ± 0.4 nM; in experiment [3], 836 ± 33.2 nM.

These data come from patent US8658605B2, “Bioactivity composition of Reevesia formosana” (priority 2011, dated 2014).
